Literature values in US6365128B1, “Monitoring gastrointestinal function to guide care of high risk patients” (Medical Defence Technologies, LLC, priority 1998, dated 2002).

Conditions: in vivo

For `CSCC[C@H](NC(=O)[C@H](Cc1c[nH]c2ccccc12)NC(=O)CCNC(=O)OC(C)(C)C)C(=O)N[C@@H](CC(=O)O)C(=O)N[C@@H](Cc1ccccc1)C(N)=O` [Pentagastrin, pentagastrin], the half life is listed as “approximately 10 minutes”.
